Assay results published in patent US20260070917A1, “CYCLIN DEPENDENT KINASE DEGRADERS AND METHODS OF USE THEREOF” (Differentiated Therapeutics Inc, priority 2023, published 2026).

Legend:
Assay type in all cases: cell-based
CDK2 = molecular target: T1, CDK2 (Homo sapiens, UniProt P24941); assay: HiBit Assay Protocol for CDK2 (HIBIT protein quantification, degradation); conditions: HEK293-CDK2-Hibit cells, compound treatment for 6 hours; for DC50: ABS DC50
T1 construct: host or cells: HEK293-CDK2-Hibit
How it was run: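 DC50 comes from a fitted curve of remaining CDK2-HiBiT luminescence, referenced to DMSO-treated cells and medium-only wells. HEK293-CDK2-HiBiT cells, plated the previous night, received compounds in a 10-point, 3-fold series for 6 h before lysis with LgBiT-containing Nano-Glo HiBiT reagent.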

CCNE1 = molecular target: T2, CCNE1 (Homo sapiens, UniProt P24864); assay: HiBit Assay Protocol for CCNE1 (HIBIT protein quantification, degradation); conditions: HEK293-CCNE1-Hibit cells, compound treatment for 6 hours
T2 construct: host or cells: HEK293-CCNE1-Hibit
How it was run: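 Degradation readout: lytic Nano-Glo HiBiT luminescence after 6 h exposure of HEK293-CCNE1-HiBiT cells to 10-point, 3-fold serial dilutions. Signal was scaled between medium-only and DMSO-treated wells, and DC50 came from curve fits.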

CDK9 = molecular target: T3, CDK9 (Homo sapiens, UniProt P50750); assay: HiBit Assay Protocol for CDK9 (HIBIT protein quantification, degradation); conditions: HEK293-CDK9-Hibit cells, compound treatment for 6 hours; for Dmax: 6 h, read-out: CDK9 HIBIT Protein Quantification Maximum
T3 construct: host or cells: HEK293-CDK9-Hibit
How it was run: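 Degradation read-out: luminescence after lytic HiBiT/LgBiT detection in HEK293-CDK9-HiBiT cells exposed 6 h to 10-point, 3-fold compound dilutions. Signal scaled between 0.1% DMSO-treated cells and medium alone; DC50 fitted from the curve.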

T2 sequence (P24864 whole entry): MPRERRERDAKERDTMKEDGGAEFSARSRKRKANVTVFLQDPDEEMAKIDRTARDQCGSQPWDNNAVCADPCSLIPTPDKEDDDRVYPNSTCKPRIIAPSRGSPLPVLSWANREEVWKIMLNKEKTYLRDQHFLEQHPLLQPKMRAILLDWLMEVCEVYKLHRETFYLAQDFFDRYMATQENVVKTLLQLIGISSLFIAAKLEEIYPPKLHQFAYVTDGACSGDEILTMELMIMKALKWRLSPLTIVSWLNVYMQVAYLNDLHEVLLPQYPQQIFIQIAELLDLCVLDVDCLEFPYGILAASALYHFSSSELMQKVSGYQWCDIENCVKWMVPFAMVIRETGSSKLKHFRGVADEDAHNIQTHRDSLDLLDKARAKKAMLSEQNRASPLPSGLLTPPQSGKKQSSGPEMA
T3 sequence (P50750 whole entry): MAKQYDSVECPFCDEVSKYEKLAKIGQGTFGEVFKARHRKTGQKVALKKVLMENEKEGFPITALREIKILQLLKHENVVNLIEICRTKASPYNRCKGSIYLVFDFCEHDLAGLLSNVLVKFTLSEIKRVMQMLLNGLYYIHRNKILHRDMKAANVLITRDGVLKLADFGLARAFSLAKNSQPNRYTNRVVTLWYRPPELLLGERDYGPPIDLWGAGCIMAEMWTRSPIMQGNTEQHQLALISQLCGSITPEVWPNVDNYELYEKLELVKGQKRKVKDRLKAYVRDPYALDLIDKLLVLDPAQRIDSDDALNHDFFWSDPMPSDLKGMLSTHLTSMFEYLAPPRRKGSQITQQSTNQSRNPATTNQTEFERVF

| SMILES | CDK2 HIBIT Protein Quantification Maximum (CDK2) [%] | CCNE1 HIBIT Protein Quantification Maximum (CCNE1) [%] | Dmax (CDK9) [%] | DC50 (CDK2) [µM] | DC50 (CDK9; ABS DC50) [µM] |
| --- | --- | --- | --- | --- | --- |
| CC1CCCC1N1C(=O)C2(CC2)c2cnc(NC3CCN(S(=O)(=O)N4CC5C4CCN5C(=O)CCCCCc4ccc5c(c4)n(C)c(=O)n5C4CCC(=O)NC4=O)CC3)nc21 (centres unmarked) [Compound 78] | 29 | 17 | 23 | – | – |
| Cn1nc(N2CCC(=O)NC2=O)c2ccc(C3CCN(Cc4cccc(S(=O)(=O)N5CC[C@H](Nc6ncc7c(n6)N([C@@H]6CCC[C@@H](O)C6)C(=O)C76CC6)[C@@H](F)C5)c4)CC3)cc21 [Compound 157] | 18 | 14 | 12 | – | – |
| Cn1c(=O)n(C2CCC(=O)NC2=O)c2cccc(C3CCN(Cc4cccc(S(=O)(=O)N5CCC(Nc6ncc7c(n6)N([C@@H]6CCC[C@@H](O)C6)C(=O)C76CC6)CC5)c4)CC3)c21 (some centres unmarked) [Compound 148] | 78 | 44 | 2 | 0.006 | – |
| O=C1CCC(N2Cc3cc(N4CCN(Cc5cccc(S(=O)(=O)N6CCC(Nc7ncc8c(n7)N([C@@H]7CCC[C@@H](O)C7)C(=O)C87CC7)CC6)c5)CC4)c(F)cc3C2=O)C(=O)N1 (stereo partly drawn) [Compound 121, 3-(6-fluoro-5-(4-(3-((4-((7′-((1R,3R)-3-hydroxycyclohexyl)-6′-oxo-6′,7′-dihydrospiro [cyclopropane-1,5′-pyrrolo[2,3-d]pyrimidin]-2′-yl)amino)piperidin-1-yl)sulfonyl)benzyl)piperazin-1-yl)-1-oxoisoindolin-2-yl)piperidine-2,6-dione] | 79 | 44 | 12 | 0.047 | – |
| C[C@@H]1CN(S(=O)(=O)c2cccc(CN3CCC(c4ccc5c(N6CCC(=O)NC6=O)nn(C)c5c4)CC3)c2)CC[C@H]1Nc1ncc2c(n1)N([C@@H]1CCC[C@@H](O)C1)C(=O)C21CC1 [Compound 154] | 64 | 31 | 15 | 0.00787 | – |
| CC(c1cccc(S(=O)(=O)N2CC[C@H](Nc3ncc4c(n3)N([C@@H]3CCC[C@@H](O)C3)C(=O)C43CC3)[C@H](F)C2)c1)N1CCN(c2ccc3c(N4CCC(=O)NC4=O)nn(C)c3c2)CC1 (some centres unmarked) [Compound 187] | 91 | 45 | 11 | 0.00432 | – |
| CC1CCCC1N1C(=O)C2(CC2)c2cnc(NC3CCN(S(=O)(=O)N4CC5CN(C(=O)CCCCc6ccc7c(c6)n(C)c(=O)n7C6CCC(=O)NC6=O)CC5C4)CC3)nc21 (centres unmarked) [Compound 103] | 31 | 7 | 0 | – | – |
| CC1CCCC1N1C(=O)C2(CC2)c2cnc(NC3CCN(S(=O)(=O)N4CC5(CN(C(=O)CCc6ccc7c(c6)n(C)c(=O)n7C6CCC(=O)NC6=O)C5)C4)CC3)nc21 (centres unmarked) [Compound 58] | 12 | 10 | 9 | – | – |
| C[C@H](c1cccc(S(=O)(=O)N2CC[C@H](Nc3ncc4c(n3)N([C@@H]3CCC[C@@H](O)C3)C(=O)C43CC3)[C@H](F)C2)c1)N1CCN(c2ccc3c(N4CCC(=O)NC4=O)nn(C)c3c2)CC1 [Compound 196] | 93 | 36 | 14 | 0.012 | – |
| C[C@@H](c1cccc(S(=O)(=O)N2CC[C@H](Nc3ncc4c(n3)N([C@@H]3CCC[C@@H](O)C3)C(=O)C43CC3)[C@H](F)C2)c1)N1CCN(c2ccc3c(N4CCC(=O)NC4=O)nn(C)c3c2)[C@@H](C)C1 [Compound 206] | 91 | 43 | 13 | 0.0109 | – |
| Cc1ccc(CN2CCC(c3ccc4c(N5CCC(=O)NC5=O)nn(C)c4c3)CC2)cc1S(=O)(=O)N1CCC(Nc2ncc3c(n2)N([C@@H]2CCC[C@@H](O)C2)C(=O)C32CC2)CC1 [Compound 163, 1-[6-(1-{[3-(4-{7′-[(1R,3R)-3-Hydroxycyclohexyl]-6′-oxospiro [cyclopropane-1,5′-pyrrolo[2,3-d]pyrimidin]-2′-ylamino}piperidin-1-ylsulfonyl)-4-methylphenyl]methyl}piperidin-4-yl)-1-methylindazol-3-yl]-1,3-diazinane-2,4-dione] | 26 | 38 | 51 | – | 0.0253 |
| CC1CCCC1N1C(=O)C2(CC2)c2cnc(NC3CCN(S(=O)(=O)N4CCCC45CCN(C(=O)CCCc4ccc6c(c4)n(C)c(=O)n6C4CCC(=O)NC4=O)C5)CC3)nc21 (centres unmarked) [Compound 63] | 15 | 2 | 14 | – | – |

Continued, values first:

| CDK2 HIBIT Protein Quantification Maximum (CDK2) [%] | CCNE1 HIBIT Protein Quantification Maximum (CCNE1) [%] | Dmax (CDK9) [%] | DC50 (CDK2) [µM] | DC50 (CDK9; ABS DC50) [µM] | SMILES |
| --- | --- | --- | --- | --- | --- |
| 55 | 21 | 24 | 0.007 | – | CC1CCCC1N1C(=O)C2(CC2)c2cnc(NC3CCN(S(=O)(=O)N4CC5(CCN(C(=O)CCCCCCCCCc6ccc7c(c6)n(C)c(=O)n7C6CCC(=O)NC6=O)CC5)C4)CC3)nc21 (centres unmarked) [Compound 88] |
| 39 | 7 | 26 | – | – | CC1CCCC1N1C(=O)C2(CC2)c2cnc(NC3CCN(S(=O)(=O)N4CC5CN(C(=O)CCCCc6cccc7c6n(C)c(=O)n7C6CCC(=O)NC6=O)CC5C4)CC3)nc21 (centres unmarked) [Compound 92] |
| 63 | 20 | 5 | 0.012 | – | CC1CCCC1N1C(=O)C2(CC2)c2cnc(NC3CCN(S(=O)(=O)N4CC5(CCCN(C(=O)CCc6cccc7c6n(C)c(=O)n7C6CCC(=O)NC6=O)C5)C4)CC3)nc21 (centres unmarked) [Compound 18] |
| 57 | 27 | 49 | 0.019 | – | CC1CCCC1N1C(=O)C2(CC2)c2cnc(NC3CCN(S(=O)(=O)N4CCN(C(=O)CCCc5cccc6c5n(C)c(=O)n6C5CCC(=O)NC5=O)CC4)CC3)nc21 (centres unmarked) [Compound 27] |
| 31 | 1 | 11 | – | – | CC1CCCC1N1C(=O)C2(CC2)c2cnc(NC3CCN(S(=O)(=O)N4CC5CN(C(=O)CCCCc6cccc7c6n(C)c(=O)n7C6CCC(=O)NC6=O)CC54)CC3)nc21 (centres unmarked) [Compound 99] |
| 39 | 14 | 8 | – | – | CC1CCCC1N1C(=O)C2(CC2)c2cnc(NC3CCN(S(=O)(=O)N4CC5(CCCN(C(=O)CCCc6ccc7c(c6)n(C)c(=O)n7C6CCC(=O)NC6=O)C5)C4)CC3)nc21 (centres unmarked) [Compound 66] |
| 35 | 42 | 15 | – | – | CC1CCCC1N1C(=O)C2(CC2)c2cnc(NC3CCN(S(=O)(=O)C4CCCN(C(=O)CCCCCCCc5cccc6c5n(C)c(=O)n6C5CCC(=O)NC5=O)C4)CC3)nc21 (centres unmarked) [Compound 48] |
| 56 | 40 | 41 | 0.053 | – | CC1CCCC1N1C(=O)C2(CC2)c2cnc(NC3CCN(S(=O)(=O)N4CC5(CCN(C(=O)CCCCCCCCCc6cccc7c6n(C)c(=O)n7C6CCC(=O)NC6=O)CC5)C4)CC3)nc21 (centres unmarked) [Compound 51] |
| 40 | 15 | 36 | – | – | CC1CCCC1N1C(=O)C2(CC2)c2cnc(NC3CCN(S(=O)(=O)N4CCC5(CCCN5C(=O)CCCCc5ccc6c(c5)n(C)c(=O)n6C5CCC(=O)NC5=O)C4)CC3)nc21 (centres unmarked) [Compound 105] |
